# Measurements: EP1763509B1, “ALPHA-HELICAL MIMETICS” (THE WALTER AND ELIZA HALL INSTITUTE OF MEDICAL RESEARCH, priority 2004, dated 2006)
# pIC50: −log10 of the molar value.
# Experiments:
# [1] = biological target: T1, Bcl-xLΔ25 (Homo sapiens, UniProt Q07817); test: Alphascreen GST competition binding assay, benzoylurea compounds vs Biotinylated Bim BH3-26 peptide on GST tagged Bcl-xL ΔC25 protein; conditions: GST tagged Bcl-xL ΔC25 protein 0.6 nM, Biotinylated Bim BH3-26 peptide 5.0 nM, 4 hours at room temperature; n.b. = not binding in the assay conditions
# T1 construct: GST tagged Bcl-xL ΔC25 protein
# T1 sequence (Q07817 1-208 limits assumed, stated change not applied): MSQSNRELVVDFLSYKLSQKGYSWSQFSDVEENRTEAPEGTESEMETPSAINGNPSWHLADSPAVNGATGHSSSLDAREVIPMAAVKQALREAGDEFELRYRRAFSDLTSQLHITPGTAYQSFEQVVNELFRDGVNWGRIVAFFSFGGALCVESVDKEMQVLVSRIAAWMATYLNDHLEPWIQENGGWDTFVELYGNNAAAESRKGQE
# [2] = biological target: T2, Bcl-wΔ29 (Homo sapiens, UniProt Q92843); test: Alphascreen GST competition binding assay, benzoylurea compounds vs Biotinylated Bim BH3-26 peptide on GST tagged Bclw ΔC29 protein; conditions: GST tagged Bclw ΔC29 protein 0.05 nM, Biotinylated Bim BH3-26 peptide 3.0 nM, 4 hours at room temperature; values marked a tested in a separate experiment; n.b. = not binding in the assay conditions
# T2 construct: GST tagged Bclw ΔC29 protein
# T2 sequence (Q92843 1-164 limits assumed): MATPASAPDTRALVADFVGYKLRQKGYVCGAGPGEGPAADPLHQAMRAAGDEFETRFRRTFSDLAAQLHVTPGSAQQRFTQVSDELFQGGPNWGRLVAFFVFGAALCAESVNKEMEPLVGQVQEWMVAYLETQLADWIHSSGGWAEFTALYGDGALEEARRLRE
SMILES,pIC50 [1],pIC50 [2],also measured
CCC(C)N(C(=O)N[C@@H](CSCc1ccccc1)C(=O)O)C(=O)c1cccc(-c2ccccc2)c1 (mixture of isomers) [(4)],3.83,3.83,
CCCN(C(=O)N[C@@H](CSCc1ccccc1)C(=O)O)C(=O)c1cccc(-c2ccccc2)c1 [(1)],4.15,4.42,
CCCN(C(=O)N[C@@H](CSCc1ccccc1)C(=O)O)C(=O)c1ccc(-c2ccc(F)cc2)cc1 [(11)],,3.98,
O=C(O)[C@H](CSCc1ccccc1)NC(=O)N(Cc1cccnc1)C(=O)c1cccc(-c2ccccc2)c1 [(12)],,4.34,
CCCN(C(=O)N[C@@H](CSCc1ccccc1)C(=O)O)C(=O)c1cccc(-c2cccc3ccccc23)c1 [(13)],,4.51,
CCCN(C(=O)N[C@@H](CSCc1ccccc1)C(=O)O)C(=O)c1cccc(-c2ccc3ccccc3c2)c1 [(14)],,4.44,
CCCN(C(=O)N[C@@H](Cc1ccc(-c2ccccc2)cc1)C(=O)O)C(=O)c1cccc(-c2ccccc2)c1 [(15)],,4.39,
CCCN(C(=O)N[C@@H](CCc1ccccc1)C(=O)O)C(=O)c1cccc(-c2ccccc2)c1 [(16)],,3.89,
CCCN(C(=O)N[C@@H](Cc1ccc2ccccc2c1)C(=O)O)C(=O)c1cccc(-c2ccccc2)c1 [(17)],,4.26,
CCCN(C(=O)N[C@@H](Cc1cccc2ccccc12)C(=O)O)C(=O)c1cccc(-c2ccccc2)c1 [(18)],,4.22,
CCCN(C(=O)N[C@@H](CCCc1ccccc1)C(=O)O)C(=O)c1cccc(-c2ccccc2)c1 [(19)],,3.88,
CCCN(C(=O)N[C@H](CSCc1ccccc1)C(=O)O)C(=O)c1cccc(-c2ccccc2)c1 [(21)],,4.08,
CCCN(C(=O)N[C@@H](CSc1ccccc1)C(=O)O)C(=O)c1cccc(-c2ccccc2)c1 [(22)],,4.10,
CCCN(C(=O)N[C@@H](CSCc1ccccc1)C(=O)O)C(=O)c1ccc(-c2ccccc2)cc1 [(23)],,4.12,
O=C(O)[C@H](CSCc1ccccc1)NC(=O)N(Cc1cccc2ccccc12)C(=O)c1cccc(-c2ccccc2)c1 [(24)],,4.51,
CCCN(C(=O)N[C@@H](CSCCc1ccncc1)C(=O)O)C(=O)c1cccc(-c2ccccc2)c1 [(25)],,3.58,
CCCN(C(=O)N[C@@H](Cc1ccccc1)C(=O)O)C(=O)c1cccc(-c2ccccc2)c1 [(27)],,3.71,
CCCN(C(=O)N[C@@H](Cc1ccc(O)cc1)C(=O)O)C(=O)c1cccc(-c2ccccc2)c1 [(28)],,3.52,
CCCN(C(=O)N[C@@H](Cc1c[nH]c2ccccc12)C(=O)O)C(=O)c1cccc(-c2ccccc2)c1 [(29)],,4.06,
CCCN(C(=O)N[C@@H](COCc1ccccc1)C(=O)O)C(=O)c1cccc(-c2ccccc2)c1 [(30)],,3.83,
CCCN(C(=O)N[C@@H](C[S+]([O-])Cc1ccccc1)C(=O)O)C(=O)c1cccc(-c2ccccc2)c1 (stereo partly shown) [(31)],,3.78,
CCCN(C(=O)N[C@@H](CSCc1ccccc1)C(=O)O)C(=O)c1cccc(Cc2ccccc2)c1 [(33)],,4.14,
CCCN(C(=O)N[C@@H](CSCc1ccccc1)C(=O)O)C(=O)c1ccc(Cc2ccccc2)cc1 [(34)],,4.14,
CCCN(C(=O)N[C@@H](CSCc1ccccc1)C(=O)O)C(=O)c1cccc(-c2ccc(F)cc2)c1 [(35)],,4.18,

SMILES,pIC50 [1],pIC50 [2],also measured
O=C(O)[C@H](CSCc1ccccc1)NC(=O)N(Cc1cccc2ccccc12)C(=O)c1cccc(-c2ccc(F)cc2)c1 [(36)],,4.33,
O=C(O)[C@H](CSCc1ccccc1)NC(=O)N(CCC1CC1)C(=O)c1cccc(-c2ccccc2)c1 [(37)],,4.22,
Cc1cccc(C)c1C(=O)N(C(=O)N[C@@H](CSCc1ccccc1)C(=O)O)C(C)C [(38)],,3.53,
CC(C)CCN(C(=O)N[C@@H](CSCc1ccccc1)C(=O)O)C(=O)c1cccc(-c2ccccc2)c1 [(39)],,4.30,
CSCCN(C(=O)N[C@@H](CSCc1ccccc1)C(=O)O)C(=O)c1cccc(-c2ccccc2)c1 [(40)],,4.20,
O=C(O)[C@H](CSCc1ccccc1)NC(=O)N(CCC1CC1)C(=O)c1ccc(-c2ccccc2)cc1 [(43)],,4.24,
CSCCN(C(=O)N[C@@H](CSCc1ccccc1)C(=O)O)C(=O)c1ccc(-c2ccccc2)cc1 [(45)],,4.16,
CCCN(C(=O)N[C@@H](CSCc1ccccc1)C(=O)O)C(=O)c1cccc(-c2ccccc2Cl)c1 [(46)],,4.42,
CCCN(C(=O)N[C@@H](CSCc1ccccc1)C(=O)O)C(=O)c1cccc(-c2ccc(C)cc2)c1 [(47)],,4.21,
CCCN(C(=O)N[C@@H](CSCc1ccccc1)C(=O)O)C(=O)c1ccc(-c2ccccc2Cl)cc1 [(48)],,4.17,
CCCN(C(=O)N[C@@H](CSCc1ccccc1)C(=O)O)C(=O)c1cccc(-c2ccc(OC)cc2)c1 [(52)],,4.02,
CCCN(C(=O)N[C@@H](CSCc1ccccc1)C(=O)O)C(=O)c1cccc(-c2ccc(Cl)c(Cl)c2)c1 [(58)],,4.32,
CCCN(C(=O)N[C@@H](CSCc1ccccc1)C(=O)O)C(=O)c1cccc(-c2ccc(Cl)cc2)c1 [(59)],,4.17,
CCCN(C(=O)N[C@@H](CSCc1ccccc1)C(=O)O)C(=O)c1ccc(-c2ccc(C)cc2)cc1 [(62)],,4.32,
CCCN(C(=O)N[C@@H](CSCc1ccccc1)C(=O)O)C(=O)c1ccc(-c2ccc(OC)cc2)cc1 [(63)],,3.87,
CCCN(C(=O)N[C@@H](CSCc1ccccc1)C(=O)O)C(=O)c1ccc(-c2ccc(Cl)cc2)cc1 [(64)],,4.13,
CCCN(C(=O)N[C@@H](CSCc1ccccc1)C(=O)O)C(=O)c1ccc(-c2ccc(Cl)c(Cl)c2)cc1 [(65)],,4.22,
CCCN(C(=O)N[C@@H](CSCc1ccccc1)C(=O)O)C(=O)c1cccc(C#Cc2ccccc2)c1 [(66)],,4.24,
CCCN(C(=O)N[C@@H](CSCc1ccccc1)C(=O)O)C(=O)c1ccc(C#Cc2ccccc2)cc1 [(67)],,4.04,
CCN(C(=O)N[C@@H](CSCc1ccccc1)C(=O)O)C(=O)c1cccc(-c2ccccc2)c1 [(70)],,3.82,
CCCN(C(=O)NCC(=O)O)C(=O)c1cccc(-c2ccccc2)c1 [(71)],,,Bcl-wΔ29 IC50 (µM) [2]: n.b.^b
O=C([C@H](CSCc1ccccc1)NC(=O)N(Cc1cccc2ccccc12)C(=O)c1cccc(-c2ccc(F)cc2)c1)N1CCOCC1 [(72)],,,Bcl-wΔ29 IC50 (µM) [2]: n.b.^b
CCCN(C(=O)N[C@@H](CSCc1ccccc1)C(=O)O)C(=O)c1cc(CC(=O)O)cc(-c2ccccc2)c1 [(81)],,3.84,
CCCN(C(=O)N[C@H](CC(=O)O)Cc1c[nH]c2ccccc12)C(=O)c1cccc(C#Cc2ccccc2)c1 [(116)],4.72,,

SMILES,pIC50 [1],pIC50 [2],also measured
CCCN(C(=O)N[C@@H](Cc1csc2ccccc12)C(=O)O)C(=O)c1cccc(C#Cc2ccccc2)c1 [(117)],4.46,,
CCCN(C(=O)N[C@H](CC(=O)O)Cc1ccc2ccccc2c1)C(=O)c1cccc(C#Cc2ccccc2)c1 [(118)],4.47,,
CCCN(C(=O)N[C@H](CC(=O)O)Cc1cccc2ccccc12)C(=O)c1cccc(C#Cc2ccccc2)c1 [(119)],4.17,,
CCCN(C(=O)N[C@@H](CCc1ccccc1)CC(=O)O)C(=O)c1cccc(C#Cc2ccccc2)c1 [(120)],4.36,,
CCCN(C(=O)N[C@@H](CCSC)CC(=O)O)C(=O)c1cccc(C#Cc2ccccc2)c1 [(121)],3.85,,
CCCCSC[C@H](NC(=O)N(CCC)C(=O)c1cccc(C#Cc2ccccc2)c1)C(=O)O [(122)],4.59,,
CCCCCSC[C@H](NC(=O)N(CCC)C(=O)c1cccc(C#Cc2ccccc2)c1)C(=O)O [(123)],4.52,,
CCCN(C(=O)N[C@@H](CSCCC(C)C)C(=O)O)C(=O)c1cccc(C#Cc2ccccc2)c1 [(124)],4.48,,
CCCN(C(=O)N[C@@H](CSCC(CC)CC)C(=O)O)C(=O)c1cccc(C#Cc2ccccc2)c1 [(126)],4.05,,
CCCN(C(=O)N[C@@H](CSCC1CCCCC1)C(=O)O)C(=O)c1cccc(C#Cc2ccccc2)c1 [(127)],4.40,,
CCCN(C(=O)N[C@@H](CSCC1CC1)C(=O)O)C(=O)c1cccc(C#Cc2ccccc2)c1 [(128)],4.28,,
CCCN(C(=O)N[C@@H](CSCC1CCC1)C(=O)O)C(=O)c1cccc(C#Cc2ccccc2)c1 [(129)],4.43,,
CCCCN(C(=O)N[C@@H](CSCC(C)C)C(=O)O)C(=O)c1cccc(C#Cc2ccccc2)c1 [(130)],4.41,,
CC(C)CSC[C@H](NC(=O)N(CC(C)C)C(=O)c1cccc(C#Cc2ccccc2)c1)C(=O)O [(131)],4.70,,
CC(C)CCN(C(=O)N[C@@H](CSCC(C)C)C(=O)O)C(=O)c1cccc(C#Cc2ccccc2)c1 [(132)],4.62,,
CSCCN(C(=O)N[C@@H](CSCC(C)C)C(=O)O)C(=O)c1cccc(C#Cc2ccccc2)c1 [(133)],4.57,,
CCCN(C(=O)N[C@@H](CSCC(C)C)C(=O)O)C(=O)c1cccc(C#Cc2ccc(C(C)(C)C)cc2)c1 [(149)],3.97,,
CCCN(C(=O)N[C@@H](CSCC(C)C)C(=O)O)C(=O)c1cccc(C#Cc2ccncc2)c1 [(150)],,,Bcl-xLΔ25 IC50 (µM) [1]: n.b.^b
CCCN(C(=O)N[C@@H](CSCC(C)C)C(=O)O)C(=O)c1cccc(C#Cc2cccnc2)c1 [(151)],3.67,,
CCCN(C(=O)N[C@@H](CSCC(C)C)C(=O)NS(=O)(=O)c1ccc(Br)cc1)C(=O)c1cccc(C#Cc2ccccc2)c1 [(152)],4.32,,
CCCN(C(=O)N[C@@H](CSCC(C)C)C(=O)NS(=O)(=O)c1cccc(Br)c1)C(=O)c1cccc(C#Cc2ccccc2)c1 [(153)],4.40,,
CCCN(C(=O)N[C@@H](CSCC(C)C)C(=O)NS(=O)(=O)c1ccc(-c2ccccc2)cc1)C(=O)c1cccc(C#Cc2ccccc2)c1 [(154)],4.38,,
CCCN(C(=O)N[C@@H](CSCC(C)C)C(=O)NS(=O)(=O)c1ccc(NCCSc2ccccc2)c([N+](=O)[O-])c1)C(=O)c1cccc(C#Cc2ccccc2)c1 [(156)],5.00,,
